From patent US9416126B2, “Compounds inhibiting leucine-rich repeat kinase enzyme activity” (Merck Sharp & Dohme Corp., priority 2013, dated 2016)
pIC50: −log10 of the molar value.

molecular target: LRRK2(G2019S mutation, GST-LRRK2(amino acids 970-2527)) (Homo sapiens (Human), UniProt Q5S007, G2019S); experiment: LRRK2 Km ATP LanthaScreen Assay; assay type: biochemical; details: Km ATP (184 μM ATP solution), G2019S LRRK2, mean IC50
Procedure: Unless otherwise noted, all LRRK2 IC50 data presented in tables refers to the LRRK2 Km ATP LanthaScreen™ Assay that is described in the Biological Assay section.
The data presented for the 5 mM and Km ATP LanthaScreen™ Assay represents mean IC50 values based on several test results and may have reasonable. deviations depending on the specific conditions and reagents used. Reagents for the LRRK2 5 mM and Km ATP LanthaScreen™ Assay were purchased from Life Technologies Corporation.
LRRK2 Km ATP LanthaScreen™ Assay
a) 400 nl of a 1:2.15 serial dilution of test compound(98 μM top assay concentration) is spotted via Labcyte Echo to certain wells in a 384 well black, untreated plate. Control wells contain 400 nl of either DMSO or 400 nl of a known inhibitor in DMSO.
b) 10 μl of a 2.5 nM LRRK2(G2019S mutation, GST-LRRK2(amino acids 970-2527)) enzyme solution in 1× assay buffer(50 mM Tris pH 8.5, 10 mM MgCl2, 0.01% Brij-35, 1 mM EGTA, 2 mM DTT, 0.05 mM NaVO4) is added to all wells.
c) A 30 minute room temperature incubation is followed by addition of 10 μl of 800 nM fluorescein labeled LRRKtide peptide substrate and 184 μM ATP solution in 1× assay buffer to all wells.
d) After a 60 minute room temperature incubation, 20 μl of TR-FRET Dilution Buffer(Invitrogen PV3756B) containing 4 nM Tb-labeled anti-phospho LRRKtide antibody and 20 mM EDTA is added to all wells.
e) Plates are incubated at room temperature for 1 hour and read on an Envision™ multi-mode plate reader with LanthaScreen™ settings. Results are analysed using Assay Data Analyzer.

LRRK2(G2019S mutation, GST-LRRK2(amino acids 970-2527)), sequence (Q5S007 970-2527 G2019S): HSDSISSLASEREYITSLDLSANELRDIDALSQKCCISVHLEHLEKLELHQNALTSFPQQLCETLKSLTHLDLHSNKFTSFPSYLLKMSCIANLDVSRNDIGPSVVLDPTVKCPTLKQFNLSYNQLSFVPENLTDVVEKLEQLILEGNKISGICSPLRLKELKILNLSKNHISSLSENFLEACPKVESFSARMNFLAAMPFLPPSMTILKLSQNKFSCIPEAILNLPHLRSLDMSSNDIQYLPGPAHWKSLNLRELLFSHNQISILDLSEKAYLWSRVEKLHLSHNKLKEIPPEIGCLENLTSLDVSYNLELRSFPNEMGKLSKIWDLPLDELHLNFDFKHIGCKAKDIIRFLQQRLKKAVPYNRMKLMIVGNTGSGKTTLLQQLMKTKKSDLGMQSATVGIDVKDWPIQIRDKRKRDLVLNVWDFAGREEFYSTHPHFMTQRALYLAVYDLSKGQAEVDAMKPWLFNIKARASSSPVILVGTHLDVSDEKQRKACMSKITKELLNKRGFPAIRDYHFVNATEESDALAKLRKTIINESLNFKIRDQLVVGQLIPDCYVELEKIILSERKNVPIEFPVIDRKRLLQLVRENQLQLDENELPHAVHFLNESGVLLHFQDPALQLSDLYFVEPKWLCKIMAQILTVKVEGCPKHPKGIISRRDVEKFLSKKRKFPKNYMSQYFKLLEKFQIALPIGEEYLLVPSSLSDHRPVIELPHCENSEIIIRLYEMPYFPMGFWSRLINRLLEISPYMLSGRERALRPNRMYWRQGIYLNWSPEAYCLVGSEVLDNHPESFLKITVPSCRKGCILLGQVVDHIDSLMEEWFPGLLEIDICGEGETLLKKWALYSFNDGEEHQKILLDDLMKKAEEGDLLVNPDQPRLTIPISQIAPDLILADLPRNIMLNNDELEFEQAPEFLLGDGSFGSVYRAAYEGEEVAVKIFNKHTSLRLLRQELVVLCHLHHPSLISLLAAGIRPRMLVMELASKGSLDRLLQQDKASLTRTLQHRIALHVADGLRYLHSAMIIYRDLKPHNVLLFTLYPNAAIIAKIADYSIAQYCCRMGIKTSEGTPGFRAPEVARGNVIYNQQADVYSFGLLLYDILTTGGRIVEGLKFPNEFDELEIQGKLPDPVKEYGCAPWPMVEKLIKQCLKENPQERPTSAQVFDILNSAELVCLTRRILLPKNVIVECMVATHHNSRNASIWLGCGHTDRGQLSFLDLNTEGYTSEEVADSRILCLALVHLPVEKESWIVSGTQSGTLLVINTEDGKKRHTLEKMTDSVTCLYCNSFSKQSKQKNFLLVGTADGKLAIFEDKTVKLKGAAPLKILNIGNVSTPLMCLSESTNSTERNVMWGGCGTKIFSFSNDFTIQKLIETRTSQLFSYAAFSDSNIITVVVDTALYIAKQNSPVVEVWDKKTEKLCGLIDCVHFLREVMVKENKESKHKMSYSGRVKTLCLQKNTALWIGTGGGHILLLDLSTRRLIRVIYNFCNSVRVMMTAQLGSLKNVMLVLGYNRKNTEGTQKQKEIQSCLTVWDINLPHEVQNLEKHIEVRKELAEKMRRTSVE

| SMILES | pIC50 |
| --- | --- |
| Cn1cc(-c2ccc3[nH]nc(-c4cc(N5CCN(C6CC6)CC5)ncn4)c3c2)cn1 [Example A2] | 8.58 |
| Cn1cc(-c2ccc3[nH]nc(-c4cc(N5CCOC6(CC6)C5)ncn4)c3c2)cn1 [Example A4] | 8.70 |
| CN1CCN(c2cc(-c3n[nH]c4ccc(-c5cnn(C)c5)cc34)ncn2)CC1=O [Example A5] | 8.31 |
| CN1CCN(c2cc(-c3n[nH]c4ccc(-c5cnn(C)c5)cc34)ncn2)CC1 [Example A6] | 8.55 |
| COCCNc1cc(-c2n[nH]c3ccc(-c4cnn(C)c4)cc23)ncn1 [Example A7] | 7.83 |
| COCCOC1CCN(c2cc(-c3n[nH]c4ccc(-c5cnn(C)c5)cc34)ncn2)CC1 [Example A9] | 8.73 |
| Cn1cc(-c2ccc3[nH]nc(-c4cc(N5CC6CCC(C5)O6)ncn4)c3c2)cn1 [Example A10] | 8.29 |
| C[C@@H]1CN(c2cc(-c3n[nH]c4ccc(-c5cnn(C)c5)cc34)ncn2)C[C@H](C)O1 [Example A11] | 8.85 |
| COC1CCN(c2cc(-c3n[nH]c4ccc(-c5cnn(C)c5)cc34)ncn2)CC1 [Example A12] | 8.69 |
| CC(=O)N1CCN(c2cc(-c3n[nH]c4ccc(-c5cnn(C)c5)cc34)ncn2)CC1 [Example A13] | 8.50 |
| Cn1cc(-c2ccc3[nH]nc(-c4cc(N5CCNC(=O)C5)ncn4)c3c2)cn1 [Example A14] | 8.55 |
| CC(C)N1CCN(c2cc(-c3n[nH]c4ccc(-c5cnn(C)c5)cc34)ncn2)CC1 [Example A15] | 9.14 |
| CO[C@H]1CN(c2cc(-c3n[nH]c4ccc(OC(C)C)cc34)ncn2)C[C@@H]1O [Example D1] | 8.00 |
| CC(C)Oc1ccc2[nH]nc(-c3cc(N4CCOC(C)(C)C4)ncn3)c2c1 [Example D3] | 8.20 |
| CC(C)Oc1ccc2[nH]nc(-c3cc(N4CC[S+]([O-])CC4)ncn3)c2c1 [Example D4] | 7.94 |
| CC(C)Oc1ccc2[nH]nc(-c3cc(N4CCC(F)(F)CC4)ncn3)c2c1 [Example D5] | 7.83 |
| CC(C)Oc1ccc2[nH]nc(-c3cc(N4CCN(S(C)(=O)=O)CC4)ncn3)c2c1 [Example D7] | 8.10 |
| CC(C)Oc1ccc2[nH]nc(-c3cc(N4CC5CCC(C4)O5)ncn3)c2c1 [Example D8] | 7.53 |
| CC(C)Oc1ccc2[nH]nc(-c3cc(N4CCN(C)C(=O)C4)ncn3)c2c1 [Example D9] | 7.95 |
| CC(C)Oc1ccc2[nH]nc(-c3cc(N4CCN(C5CC5)CC4)ncn3)c2c1 [Example D10] | 8.08 |
| [2H]C1([2H])OC([2H])([2H])C([2H])([2H])N(c2cc(-c3n[nH]c4ccc(OC(C)C)cc34)ncn2)C1([2H])[2H] [Example D11] | 8.15 |
| CC(C)Oc1ccc2[nH]nc(-c3cc(N4CCOC5(CC5)C4)ncn3)c2c1 [Example D12] | 8.39 |
| CC(C)Oc1ccc2[nH]nc(-c3cc(N4CCOCC4C)ncn3)c2c1 (stereo not drawn) [Example D13] | 7.70 |
| CCCN1CCN(c2cc(-c3n[nH]c4ccc(OC(C)C)cc34)ncn2)CC1 [Example D14] | 8.09 |

| SMILES | pIC50 |
| --- | --- |
| COCCNc1cc(-c2n[nH]c3ccc(OC(C)C)cc23)ncn1 [Example D16] | 7.58 |
| CC(C)Oc1ccc2[nH]nc(-c3cc(N4CCN(C(C)C)CC4)ncn3)c2c1 [Example D17] | 8.11 |
| CC(C)Oc1ccc2[nH]nc(-c3cc(N4CCNCC4)ncn3)c2c1 [Example D18] | 7.91 |
| COCCN(C)c1cc(-c2n[nH]c3ccc(OC(C)C)cc23)ncn1 [Example D19] | 7.18 |
| CC(C)Oc1ccc2[nH]nc(-c3cc(N4CCO[C@@H](C)C4)ncn3)c2c1 [Example D20] | 7.67 |
| COCCN1CCN(c2cc(-c3n[nH]c4ccc(OC(C)C)cc34)ncn2)CC1=O [Example D21] | 8.25 |
| CC(C)Oc1ccc2[nH]nc(-c3cc(N4CCN(C(=O)C5CC5)CC4)ncn3)c2c1 [Example D22] | 8.38 |
| CC(C)Oc1ccc2[nH]nc(-c3cc(N4CCN(S(=O)(=O)C5CC5)CC4)ncn3)c2c1 [Example D23] | 8.26 |
| CC(C)Oc1cc2c(-c3cc(N4CCOCC4)ncn3)n[nH]c2cc1F [Example D26] | 8.62 |
| CC(C)Oc1ccc2[nH]nc(-c3cc(N4C=CSCC4)ncn3)c2c1 [Example D27] | 8.22 |
| CCN1CCN(c2cc(-c3n[nH]c4ccc(OC(C)C)cc34)ncn2)CC1=O [Example D28] | 8.25 |
| CC(C)Oc1ccc2[nH]nc(-c3cc(N4CCN(C(C)C)C(=O)C4)ncn3)c2c1 [Example D29] | 8.28 |
| CO[C@@H]1CCN(c2cc(-c3n[nH]c4ccc(OC(C)C)cc34)ncn2)C1 [Example D30] | 8.13 |
| CO[C@H]1CCN(c2cc(-c3n[nH]c4ccc(OC(C)C)cc34)ncn2)C1 [Example D31] | 8.06 |
| CC(C)Oc1ccc2[nH]nc(-c3cc(N4CCN(CCF)C(=O)C4)ncn3)c2c1 [Example D33] | 8.48 |
| CCCN1CCN(c2cc(-c3n[nH]c4ccc(OC(C)C)cc34)ncn2)CC1=O [Example D34] | 8.36 |
| CC(C)Oc1cc2c(-c3cc(N4C[C@H](F)[C@@H](F)C4)ncn3)n[nH]c2cc1F [Example D35] | 8.32 |
| CCN1CCN(c2cc(-c3n[nH]c4cc(F)c(OC(C)C)cc34)ncn2)CC1=O [Example D36] | 8.38 |
| CC(C)Oc1cc2c(-c3cc(N4CCNC(=O)C4)ncn3)n[nH]c2cc1F [Example D37] | 8.54 |
| CC(C)Oc1cc2c(-c3cc(N4CCO[C@@H](C)C4)ncn3)n[nH]c2cc1F [Example D38] | 8.30 |
| CC(C)Oc1cc2c(-c3cc(N4CCO[C@H](C)C4)ncn3)n[nH]c2cc1F [Example D39] | 8.54 |
| CC(C)Oc1cc2c(-c3cc(N4CCOCC4C)ncn3)n[nH]c2cc1F (stereo not drawn) [Example D40] | 8.26 |
| CC(C)Oc1ccc2[nH]nc(-c3cc(N4C[C@H](O)[C@@H](O)[C@@H]4C)ncn3)c2c1 [Example D42] | 7.74 |
| CC(C)Oc1ccc2[nH]nc(-c3cc(N4CC[C@@H](N)C4)ncn3)c2c1 [Example D43] | 8.06 |

| SMILES | pIC50 |
| --- | --- |
| CC(C)Oc1ccc2[nH]nc(-c3cc(N4CC[C@H](N)C4)ncn3)c2c1 [Example D44] | 8.18 |
| CC(C)Oc1cc2c(-c3cc(N4CCN(C5CC5)CC4)ncn3)n[nH]c2cc1F [Example D45] | 8.40 |
| CCN1CCN(c2cc(-c3n[nH]c4cc(F)c(OC(C)C)cc34)ncn2)CC1 [Example D46] | 8.53 |
| CC(C)Oc1cc2c(-c3cc(N4CC5CCC(C4)O5)ncn3)n[nH]c2cc1F [Example D47] | 7.84 |
| CC(C)Oc1ccc2[nH]nc(-c3cc(N4CCC5(CCCO5)CC4)ncn3)c2c1 [Example D49] | 8.38 |
| CC(C)Oc1cc2c(-c3cc(N4CCN(C)[C@@H](C)C4)ncn3)n[nH]c2cc1F [Example D50] | 8.92 |
| CC(C)Oc1cc2c(-c3cc(N4CCN(C)[C@H](C)C4)ncn3)n[nH]c2cc1F [Example D51] | 8.89 |
| CC(C)Oc1ccc2[nH]nc(-c3cc(N4C[C@H](N)C[C@@H]4C)ncn3)c2c1 [Example D52] | 7.95 |
| CCC(=O)N1CCN(c2cc(-c3n[nH]c4ccc(OC(C)C)cc34)ncn2)CC1 [Example D53] | 8.37 |
| CC(C)Oc1ccc2[nH]nc(-c3cc(N4C[C@@H]5C[C@H]4CO5)ncn3)c2c1 [Example D54] | 8.23 |
| CC(C)Oc1ccc2[nH]nc(-c3cc(N4C[C@H](O)[C@@H](N)[C@@H]4C)ncn3)c2c1 [Example D55] | 7.84 |
| CC(C)Oc1cc2c(-c3cc(N4CCN(c5cnn(C)c5)CC4)ncn3)n[nH]c2cc1F [Example D56] | 8.66 |
| CC(C)Oc1cc2c(-c3cc(N4C[C@H](O)[C@@H](O)[C@@H]4C)ncn3)n[nH]c2cc1F [Example D57] | 7.81 |
| CC(C)Oc1cc2c(-c3cc(N4CC[C@@H](N)C4)ncn3)n[nH]c2cc1F [Example D58] | 8.14 |
| CC(C)Oc1cc2c(-c3cc(N4CC[C@H](N)C4)ncn3)n[nH]c2cc1F [Example D59] | 7.98 |
| CC(C)Oc1cc2c(-c3cc(N4C[C@H](N)C[C@@H]4C)ncn3)n[nH]c2cc1F [Example D60] | 8.12 |
| CC(C)Oc1cc2c(-c3cc(N4C[C@H](O)[C@@H](N)[C@@H]4C)ncn3)n[nH]c2cc1F [Example D61] | 7.93 |
| CC(C)Oc1cc2c(-c3cc(N4CCN(CCO)CC4)ncn3)n[nH]c2cc1F [Example D62] | 8.78 |
| CC(C)Oc1cc2c(-c3cc(N4CCN(S(=O)(=O)C5CC5)CC4)ncn3)n[nH]c2cc1F [Example D63] | 8.38 |
| CCC(=O)N1CCN(c2cc(-c3n[nH]c4cc(F)c(OC(C)C)cc34)ncn2)CC1 [Example D64] | 8.36 |
| CC(C)Oc1cc2c(-c3cc(N4CCN(C(=O)C5CC5)CC4)ncn3)n[nH]c2cc1F [Example D65] | 8.53 |
| CCCN1CCN(c2cc(-c3n[nH]c4cc(F)c(OC(C)C)cc34)ncn2)CC1=O [Example D66] | 8.56 |
| COCCOC1CCN(c2cc(-c3n[nH]c4cc(F)c(OC(C)C)cc34)ncn2)CC1 [Example D67] | 8.68 |
| CCS(=O)(=O)N1CCN(c2cc(-c3n[nH]c4cc(F)c(OC(C)C)cc34)ncn2)CC1 [Example D68] | 8.65 |
